Values of other authors, collected in patent US20110044993A1, “METHOD FOR THE PREVENTION AND TREATMENT OF CANCER BY INHIBITION OF GPVI” (priority 2008, published 2011).

Molecular target: T1, GPVI (Homo sapiens, UniProt Q9HCN6)
T1 sequence (Q9HCN6 21-339): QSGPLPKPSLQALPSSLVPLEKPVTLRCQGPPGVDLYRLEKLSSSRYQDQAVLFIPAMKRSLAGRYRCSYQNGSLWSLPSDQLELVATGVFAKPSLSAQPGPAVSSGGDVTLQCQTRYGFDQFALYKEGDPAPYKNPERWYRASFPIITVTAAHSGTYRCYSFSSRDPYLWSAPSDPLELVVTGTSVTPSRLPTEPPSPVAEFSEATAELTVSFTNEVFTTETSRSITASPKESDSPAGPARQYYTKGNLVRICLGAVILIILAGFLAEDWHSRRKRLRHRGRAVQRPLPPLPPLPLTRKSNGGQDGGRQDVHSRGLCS
T1 sequence (P30273 19-86 partner): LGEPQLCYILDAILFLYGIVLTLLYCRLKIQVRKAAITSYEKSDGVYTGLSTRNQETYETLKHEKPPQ
Details: cited from earlier work

CCCCc1nc(Cl)c(C=O)n1Cc1ccc(-c2ccccc2-c2nn[nH]n2)cc1 [EXP3179]
Inhibition of GPVI: inhibits GPVI
